Where two headings read alike, the source gives them in different places.
Assays:
[1] = target: T1, norepinephrine transporter (Homo sapiens, UniProt P23975); details: affinity; cited from earlier work
[2] = target: sigma-1 (Homo sapiens, UniProt Q99720); details: sigma-1 agonist; cited from earlier work
[3] = target: N-methyl-D-aspartate (NMDA) receptor; details: weak uncompetitive antagonist; cited from earlier work
[4] = target: T1, norepinephrine transporter; details: inhibits uptake of norepinephrine; cited from earlier work
[5] = test system: healthy subjects; assay: Example 6 Phase 1 drug interaction study: safety (adverse events); assay type: in vivo, human
Method: Safety was evaluated in all subjects throughout the study and included adverse event (AE) reporting, electrocardiograms (ECGs), laboratory evaluations, physical examinations, and vital signs. The Columbia-Suicide Severity Rating Scale (C-SSRS) was used to prospectively assess suicidal ideation and behavior throughout the study.
Safety: Safety was evaluated in all subjects throughout the study and included adverse event (AE) reporting, electrocardiograms (ECGs), laboratory evaluations, physical examinations, and vital signs. The Columbia-Suicide Severity Rating Scale (C-SSRS) was used to prospectively assess suicidal ideation and behavior throughout the study as part of the safety assessments per the FDA guidance, “Suicidal Ideation and Behavior: Prospective Assessment of Occurrence in Clinical Trials.”
Safety: Safety variables, including incidence of adverse events, vital signs, ECG parameters, and clinical laboratory results, were summarized by treatment. Responses to the C-SSRS questionnaire were listed for each subject. Individual subject profiles were presented for any questions with an abnormal response.

[6] = clinical
From the text: (§1) Subjects attended a Screening visit at the clinic within 14 days prior to enrolment (Day 1). If eligible, the subjects were enrolled on Day 1 to one of 4 Groups (Day 1 occurred on different days for different groups to ensure the availability of beds in the units for those dates). Subjects returned to the clinic daily for out-patient dosing until the second day of (morning) PK sampling (this day differed between treatment groups). After the second day (morning) PK sampling, subjects were admitted to the clinic that night before (full) PK sampling the next day. Subjects stayed in the in-patient unit until the last day of PK sampling (length of time differed between treatment groups based on the amount of time for the study medications to reach steady state).
(§2) Samples were collected for PK evaluation up to 36 hours post the last dose of study medication.
(§3) Paroxetine 20 mg tablets. Duloxetine 20 mg capsules. Subjects received study medication as per the study schedule, provided above in Methodology.
(§4) Each dose (consisting of one capsule/tablet) was administered orally with 240 mL of room temperature water. Morning doses were preceded by an overnight fast (i.e., at least 8 hours) from food (not including water) and evening doses were preceded by at least a 2-hour fast from food. All doses were followed by a fast from food (not including water) for at least 2 hours post-dose.
(§5) Pre-dose and 0.5, 1, 2, 3, 4, 6, 8, and 12 hours after the morning dose on the last day of single medication dosing. For Group 1 only, as paroxetine was administered once a day, an additional sample was taken at 24 hours after the last day of single dosing (prior to the first combined dosing).
(§6) Pre-dose and 0.5, 1, 2, 3, 4, 6, 8, 12, 24, and 36 hours after the morning dose on the last day of combined dosing
(§7) Prior to the morning dose on Day 4 (for Groups 2 and 4 only) and on each of the 2 days prior to the last day of single medication dosing and the last day of combined dosing.
(§8) Mean plasma concentration-time profiles were plotted by treatment on linear and semi-logarithmic scales. In addition, non-compartmental PK parameters were derived. […] The point estimates and confidence limits were determined using the log transformed data and then transformed back to the original scale. The analysis was performed using analysis of variance with the terms Subject and Treatment.

[7] = clinical; remark: listed apart in the source
From the text: as §1, §2, §3, §4, §5, §6, §7, §8

[8] = test system: receptors responsible for modulation of glutamate, monoamine, sigma-1, and nicotinic cholinergic pathways; assay: Pharmacology studies with deuterated DM
[9] = target: T2, CYP2D6 (Homo sapiens, UniProt P10635); details: in vitro metabolism, various species including human
[10] = Toxicology studies with d6-DM and 13-week toxicity study with d6-DM/Q; assay type: in vivo; details: at comparable exposures; adverse clinical signs associated with CNS effects
[11] = target: T2, CYP2D6; details: cited from earlier work
[12] = Group 3, Day 13 (combined dosing duloxetine + AVP-786), plasma, mean
[13] = Group 3, Day 13 (combined dosing duloxetine + AVP-786), plasma, median
[14] = Group 4, Day 8 (AVP-786 single treatment), plasma, mean
[15] = Group 4, Day 8 (AVP-786 single treatment), plasma, median
[16] = Group 4, Day 13 (combined dosing AVP-786 + duloxetine), plasma, mean
[17] = Group 4, Day 13 (combined dosing AVP-786 + duloxetine), plasma, median
[18] = Group 4: AVP-786-30/4.75 BID + duloxetine 20 mg BID vs AVP-786 alone, steady state, N 11
[19] = Group 1, Day 20 (combined dosing paroxetine + AVP-786), plasma, mean
[20] = Group 1, Day 20 (combined dosing paroxetine + AVP-786), plasma, median
[21] = Group 2, Day 8 (AVP-786 single treatment), plasma, mean
[22] = Group 2, Day 8 (AVP-786 single treatment), plasma, median
[23] = Group 2, Day 20 (combined dosing AVP-786 + paroxetine), plasma, mean
[24] = Group 2, Day 20 (combined dosing AVP-786 + paroxetine), plasma, median
[25] = Group 2: AVP-786-30/4.75 BID + paroxetine 20 mg once daily vs AVP-786 alone, steady state, N 14

T2 sequence (P10635 whole entry): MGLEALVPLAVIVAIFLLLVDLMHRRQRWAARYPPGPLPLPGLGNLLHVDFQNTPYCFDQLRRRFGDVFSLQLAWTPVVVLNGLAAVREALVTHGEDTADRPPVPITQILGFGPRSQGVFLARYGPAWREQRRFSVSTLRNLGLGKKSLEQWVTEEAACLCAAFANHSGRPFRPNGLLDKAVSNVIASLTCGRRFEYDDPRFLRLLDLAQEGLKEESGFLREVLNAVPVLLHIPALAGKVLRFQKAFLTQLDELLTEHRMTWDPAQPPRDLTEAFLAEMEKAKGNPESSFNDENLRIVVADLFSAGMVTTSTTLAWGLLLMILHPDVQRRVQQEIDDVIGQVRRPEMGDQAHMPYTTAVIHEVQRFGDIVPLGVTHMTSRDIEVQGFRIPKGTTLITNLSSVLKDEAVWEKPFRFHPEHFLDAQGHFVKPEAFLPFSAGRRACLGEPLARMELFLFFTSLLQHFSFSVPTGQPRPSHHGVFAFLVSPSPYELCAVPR
Chain of sigma-1 (Q99720 whole entry): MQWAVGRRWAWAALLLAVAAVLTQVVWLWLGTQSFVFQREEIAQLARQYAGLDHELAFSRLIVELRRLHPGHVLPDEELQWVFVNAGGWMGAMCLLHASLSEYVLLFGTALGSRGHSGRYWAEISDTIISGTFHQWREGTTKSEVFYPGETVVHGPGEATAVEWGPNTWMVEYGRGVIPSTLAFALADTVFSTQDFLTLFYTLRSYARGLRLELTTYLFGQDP
T1 sequence (P23975 whole entry, species assumed): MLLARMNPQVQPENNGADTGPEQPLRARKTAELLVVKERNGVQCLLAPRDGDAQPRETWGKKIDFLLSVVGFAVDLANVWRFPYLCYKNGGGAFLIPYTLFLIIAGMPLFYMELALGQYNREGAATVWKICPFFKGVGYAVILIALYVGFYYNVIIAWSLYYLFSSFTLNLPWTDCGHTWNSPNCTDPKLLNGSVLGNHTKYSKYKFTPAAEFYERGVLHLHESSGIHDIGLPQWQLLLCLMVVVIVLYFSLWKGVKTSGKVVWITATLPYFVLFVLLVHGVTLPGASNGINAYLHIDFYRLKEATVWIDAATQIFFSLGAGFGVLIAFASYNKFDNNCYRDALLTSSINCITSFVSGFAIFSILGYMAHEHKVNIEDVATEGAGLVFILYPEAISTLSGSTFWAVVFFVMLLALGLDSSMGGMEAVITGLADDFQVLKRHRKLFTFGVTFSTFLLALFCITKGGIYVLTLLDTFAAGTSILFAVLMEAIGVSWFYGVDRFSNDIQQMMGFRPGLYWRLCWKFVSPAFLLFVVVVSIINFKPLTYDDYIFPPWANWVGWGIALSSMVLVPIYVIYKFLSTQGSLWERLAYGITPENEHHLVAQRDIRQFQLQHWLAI

SMILES: COc1ccc2c(c1)[C@@]13CCCC[C@H]1[C@@H](C2)N(C)CC3 [DM, (+)-3-methoxy-N-methylmorphinan]
- Ki [1]: 13 µM
- Ki [2]: 0.2 µM
- Ki [3]: 1.5 µM

SMILES: CNCC[C@H](Oc1cccc2ccccc12)c1cccs1 [Duloxetine, duloxetine, reference compound]
- treatment-emergent AEs reported, subjects ([5]; Groups 3 and 4, healthy subjects): 43%
- AUC0-12 ([6]; both, human, in vivo): 194 ng·h/mL
- t1/2 ([6]; both, human, in vivo): 5.04 h
- Cmax ([6]; both, human, in vivo, Cmax): 26.1 ng/mL
- Tmax ([6]; both, human, in vivo, Tmax): 4 h

SMILES: Fc1ccc([C@@H]2CCNC[C@H]2COc2ccc3c(c2)OCO3)cc1 [Paroxetine, paroxetine, reference compound]
- treatment-emergent AEs reported, subjects ([5]; Groups 1 and 2, healthy subjects): 50%
- AUC(0-t) ([7]; both, human, in vivo, AUC0-24 (PAR)): 452 ng·h/mL
- Cmax ([7]; both, human, in vivo, Cmax): 29.5 ng/mL
- Tmax ([7]; both, human, in vivo, Tmax): 4 h

SMILES: C=C[C@H]1C[N@]2CC[C@@H]1C[C@@H]2[C@@H](O)c1ccnc2ccc(OC)cc12 [Quinidine, quinidine]
- AUC0-12 ([6]; both, human, in vivo): 160 ng·h/mL
- Cmax ([6]; both, human, in vivo): 24.9 ng/mL
- Tmax ([6]; both, human, in vivo): 1.00 h
- AUC0-12 ([7]; both, human, in vivo): 146 ng·h/mL
- Cmax ([7]; both, human, in vivo): 23.1 ng/mL
- Tmax ([7]; both, human, in vivo): 1.00 h

SMILES: [2H]C([2H])([2H])N1CCC23CCCCC2C1Cc1ccc(O)cc13 (stereo not shown) [d3-DX, d3-dextrorphan]
- AUC0-12 [6, 12]: 1295 ng·h/mL
- Cmax [6, 12]: 128 ng/mL
- t1/2 [6, 12]: 21.7 h
- Tmax [6, 13]: 3.00 h
- AUC0-12 [6, 14]: 1267 ng·h/mL
- Cmax [6, 14]: 127 ng/mL
- Tmax [6, 15]: 3.00 h
- AUC0-12 [6, 16]: 1224 ng·h/mL
- Cmax [6, 16]: 121 ng/mL
- t1/2 [6, 16]: 20.0 h
- Tmax [6, 17]: 3.00 h
- AUC0-12 Ratio of LS Means [6, 18]: 97.6%
- Cmax Ratio of LS Means [6, 18]: 96.3%
- steady state systemic exposure relative to AVP-786 alone ([7]; AVP-786 co-administered with paroxetine): approximately 75%
- AUC0-12 [7, 19]: 820 ng·h/mL
- Cmax [7, 19]: 87.2 ng/mL
- Tmax [7, 20]: 1.00 h
- AUC0-12 [7, 21]: 1142 ng·h/mL
- Cmax [7, 21]: 117 ng/mL
- Tmax [7, 22]: 3.00 h
- AUC0-12 [7, 23]: 820 ng·h/mL
- Cmax [7, 23]: 94.1 ng/mL
- Tmax [7, 24]: 0.50 h
- AUC0-12 Ratio of LS Means [7, 25]: 71.6%
- Cmax Ratio of LS Means [7, 25]: 77.1%

SMILES: [2H]C([2H])([2H])Oc1ccc2c(c1)[C@]13CCCC[C@@H]1[C@H](C2)N(C([2H])([2H])[2H])CC3 [d6-DM]
- AUC0-12 [6, 12]: 692 ng·h/mL
- Cmax [6, 12]: 72.7 ng/mL
- t1/2 [6, 12]: 13.3 h
- AUC0-12 [6, 14]: 540 ng·h/mL
- Cmax [6, 14]: 59.0 ng/mL
- Tmax [6, 15]: 3.00 h
- AUC0-12 [6, 16]: 605 ng·h/mL
- t1/2 [6, 16]: 12.6 h
- Tmax [6, 17]: 3.00 h
- metabolites identified compared to DM [9]: no unique metabolites
- AUC0-12 [7, 19]: 943 ng·h/mL
- Cmax [7, 19]: 93.5 ng/mL
- Tmax [7, 20]: 2.00 h
- AUC0-12 [7, 21]: 467 ng·h/mL
- Cmax [7, 21]: 54.6 ng/mL
- Tmax [7, 22]: 3.00 h
- Cmax [7, 23]: 100 ng/mL
- t1/2 [7, 23]: 17.3 h
- Tmax [7, 24]: 3.00 h
- dose-limiting toxicities (DLTs) of d6-DM and DM [10]: comparable

SMILES: CC(CCc1ccccc1)NCC(O)c1ccc(O)c(C(N)=O)c1 (stereo not shown) [labetalol]
- Ki [11]: ≤ 50 µM

SMILES: Cc1cccc(C)c1OCC(C)N (stereo not shown) [mexiletine]
- Ki [11]: ≤ 50 µM

SMILES: CNCCC=C1c2ccccc2CCc2ccccc21 [nortriptyline]
- Ki [11]: ≤ 50 µM

SMILES: C=CCOc1ccccc1OCC(O)CNC(C)C (stereo not shown) [oxprenolol]
- Ki [11]: ≤ 50 µM

Reference: US20240082237A1, “PHARMACEUTICAL COMPOSITIONS COMPRISING A DEXTROMETHORPHAN COMPOUND AND QUINIDINE FOR THE TREATMENT OF AGITATION IN DEMENTIA” (priority 2014, published 2024)
